{"source": "patent US10301264B2", "about": "“Compounds useful for treating ocular neovasculan” (The University of Nottingham, priority 2012, dated 2019)", "key": {"laser-induced CNV [1]": {"system": "laser-induced CNV", "test": "Laser-induced mouse CNV model, topical eye drops", "assay_type": "in vivo", "experimental": "(§1) Laser Lesion Induction Protocol\n(§2) Six to eight week-old C57/B6 mice (B&K Laboratories) and adult Norway-Brown rats (Harlan Laboratories) were anaesthetized with an intraperitoneal injection of a mixture of 50 mg/kg ketamine and 0.5 mg/kg medetomidine. The pupils were dilated with 2.5% phenylephrine hydrochloride and 1% tropicamide. Four photocoagulation lesions were delivered with a krypton red laser (Mice: 250 mW, 0.01 s, 75 μm, Rats: 200 mW, 0.01 s, 75 μm, IRIS Medical 810 nm Oculight Slx laser) between the retinal vessels in a peripapillary distribution at a distance of 1-2 disc-diameters in each eye. Only laser lesions with a subretinal bubble at the time of treatment were included in the study. […] Animals were culled on either day 4 or day 14 and eyes were either unfixed for retinal dissection and protein extraction, or fixed and enucleated and choroids stained for isolectin-B4 and examined.\nWe performed a dose response trial investigating SRPIN340 topical eye drops. SRPIN340 was dissolved in a previously described drug delivery vehicle (Doukas et al., 2008) and administered twice daily. Fourteen days following laser insult choroids were fixed and flatmounted for isolectin staining and retinae were extracted for RNA analysis."}, "[2]": {"system": "VEGF165 mRNA isoforms in primary RPE cells", "test": "RT-PCR for VEGF165 / VEGF165b mRNA in primary RPE cells", "assay_type": "cell-based, human", "experimental": "ID NO: 5)). […] Cells were treated with […]6 and 7 and the PCR repeated."}, "laser-induced CNV [3]": {"system": "laser-induced CNV", "test": "Laser-induced mouse CNV model, intravitreal injection", "assay_type": "in vivo", "details": "for area of neovascular lesions, mouse laser-induced CNV model: discussion summary, route not stated", "experimental": "as §1, §2"}, "[4]": {"system": "SRSF1 phosphorylation in PC3 prostate cancer cells", "test": "Inhibition of SRSF1 phosphorylation induced by EGF activation", "assay_type": "cell-based", "details": "10 μM, 1 hr, 10 nM EGF", "experimental": "Inhibition of SRSF1 Phosphorylation Induced by EGF Activation. […] Cells were lysed, and subjected to immunoblotting using an antibody to phosphorylated SR proteins (MAB104) and an antibody to tubulin as a loading control. Intensity was measured for SRSF1 and SRSF5 bands using ImageJ Intensity. Phosphorylation is calculated as the increase in intensity of the band over untreated relative to that for EGF with vehicle."}, "[5]": {"system": "VEGF165b protein in RPE cells", "test": "Western blotting for VEGF165b in RPE cells", "assay_type": "cell-based, human", "details": "100 nM, FIG. 9B", "experimental": "Protein was extracted from RPE cells treated for 48 hours with SPHINXes and subjected to western blotting for VEGF165b using anti-VEGF165b antibody as previously described (Gammons et al Invest. Ophthahnol. Vis. Sci. 54(9) 6052-6062)."}, "in vivo": {"test": "in vivo", "details": "CD-1, mouse, topical or ocular, 5 ug"}, "VEGF protein expression": {"system": "VEGF protein expression", "test": "PanVEGF and VEGFxxxb ELISA", "assay_type": "cell-based, human", "details": "FIG. 2C", "experimental": "PanVEGF and VEGFxxxb enzyme-linked immunosorbent assay (ELISA).\nOne μg/ml pan-VEGF capture antibody (Duoset VEGF ELISA DY-293; R&D systems) was incubated overnight at room temperature. The plates were blocked (Superblock; Thermo Scientific) and serial dilutions of recombinant human (rh)VEGF165 or rhVEGF165b standards (ranging from 4 ng/ml to 16.25 pg/ml) were added, incubated alongside sample lysates, typically diluted 1:10. The plate was incubated for one hour at 37° C. with shaking, washed and incubated with 100 μl/well of either biotinylated goat anti-human VEGF (0.1 μg/ml; R & D systems) or mouse anti-human VEGF165b (0.25 μg/ml) for one further hour at 37° C. After washing, 100 μl/well of Horseradish Peroxidase (HRP)-conjugated streptavidin (1:200; R&D Systems) was added, and plates were left at room temperature for 20 minutes.\nThe plates were washed and colour change induced with substrate A and B (DY-999; R&D Systems) for 20 mins under light protection. The reaction was stopped by addition of 100 μl/well of 1M H2SO4 and the absorbance was read immediately in an ELISA plate reader (Dynex Technologies Opsys MR system plate reader) at 450 nm with a control reading at 570 nm. Revelation Quicklink 4.25 software was also used to calculate a standard curve from mean absorbance values of standards enabling the estimation of VEGF concentration for each sample."}, "laser-induced CNV [6]": {"system": "laser-induced CNV", "test": "Laser-induced rat CNV model, intravitreal injection", "assay_type": "in vivo", "details": "intravitreal (SRPIN340 25 ng)", "experimental": "as §1, §2\nMVRL10 therefore appeared to be a relatively specific inhibitor of SRPK1. To determine whether SRPK1 inhibition could inhibit CNV in animal models we tested these compounds alongside each other in a laser-induced mouse CNV model. […]"}, "[7]": {"system": "SRSF1 expression in ARPE-19 cells", "test": "SRSF1 expression relative to tubulin in ARPE-19 cells", "assay_type": "cell-based, human", "details": "72 hours up to six days", "experimental": "Protein samples (30-50 μg) were mixed with 1× sodium-dodecyl sulphate (SDS) loading buffer (100 mM Tris-HCl, 4% SDS, 20% glycerol, 0.2% (w/v) bromophenol blue, and 5% final concentration 2-mercaptoethanol, pH6.8). To denature the protein, samples were boiled for five minutes at 100° C.\nSamples were subjected to polyacrylamide gel electrophoresis (PAGE) on a 12% SDS-PAGE gel at 90V in ice cold running buffer (25 mM Tris-HCl, 250 mM glycine, 0.1% SDS, pH8.3) for approximately 2.5 hours. The separated proteins were then electrophoretically blotted to a methanol-activated polyvinylidene fluoride (PVDF) membrane (Fisher Scientific) by wet transfer for two hours at 90V in transfer buffer (50 mM Tris-HCl, 38 mM glycine, 20% methanol, pH8.3). […] The washes were repeated and the bands were detected using the Enhanced Chemoluminiscence (ECL) SuperSignal West Femto Maximum Sensitivity Substrate kit (Pierce).\nThe SRPK inhibitors were tested in a series of in vitro assays to determine the effect of treatment on VEGF isoform expression. Initially the effect of compound treatment on SRPK1 and SRSF1 expression was determined."}, "[8]": {"test": "Pharmacokinetics in the eye after topical application (mass spectrometry)"}, "[9]": {"system": "VEGF expression in retinal protein", "test": "Retinal protein VEGF expression by western blot, rat CNV model", "assay_type": "in vivo", "experimental": "as §2\nRetinal protein from SRPIN340 and saline treated eyes 4 days after initial treatment was assessed for VEGF expression by western blot. […] The expression of VEGFxxxb isoforms was investigated using mouse monoclonal 561 antibody (R&D systems)."}, "SRPK1": {"target": "SRPK1 (Homo sapiens, UniProt Q96SB4)", "sequence (Q96SB4 whole entry, species assumed)": "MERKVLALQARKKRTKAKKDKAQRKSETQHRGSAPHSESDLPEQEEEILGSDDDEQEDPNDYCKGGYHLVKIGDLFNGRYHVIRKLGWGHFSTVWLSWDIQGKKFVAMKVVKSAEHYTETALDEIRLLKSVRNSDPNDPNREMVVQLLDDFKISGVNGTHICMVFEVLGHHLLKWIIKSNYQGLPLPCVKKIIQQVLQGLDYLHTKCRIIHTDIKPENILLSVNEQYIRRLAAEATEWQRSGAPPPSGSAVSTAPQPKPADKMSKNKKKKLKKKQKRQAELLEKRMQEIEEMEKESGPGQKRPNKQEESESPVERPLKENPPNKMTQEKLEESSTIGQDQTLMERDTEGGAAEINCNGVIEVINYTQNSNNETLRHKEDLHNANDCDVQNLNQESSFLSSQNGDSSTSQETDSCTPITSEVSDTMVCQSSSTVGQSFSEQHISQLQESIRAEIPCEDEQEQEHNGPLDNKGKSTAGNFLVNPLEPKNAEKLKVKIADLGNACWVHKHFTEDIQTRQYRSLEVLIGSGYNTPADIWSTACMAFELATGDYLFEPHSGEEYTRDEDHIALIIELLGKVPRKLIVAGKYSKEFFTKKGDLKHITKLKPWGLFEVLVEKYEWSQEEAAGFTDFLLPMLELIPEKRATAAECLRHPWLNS", "test": "In vitro kinase assay (Kinase-Glo), SRPK1", "assay_type": "biochemical"}, "SRPK2": {"target": "SRPK2 (Homo sapiens, UniProt P78362)", "sequence (P78362 whole entry, species assumed)": "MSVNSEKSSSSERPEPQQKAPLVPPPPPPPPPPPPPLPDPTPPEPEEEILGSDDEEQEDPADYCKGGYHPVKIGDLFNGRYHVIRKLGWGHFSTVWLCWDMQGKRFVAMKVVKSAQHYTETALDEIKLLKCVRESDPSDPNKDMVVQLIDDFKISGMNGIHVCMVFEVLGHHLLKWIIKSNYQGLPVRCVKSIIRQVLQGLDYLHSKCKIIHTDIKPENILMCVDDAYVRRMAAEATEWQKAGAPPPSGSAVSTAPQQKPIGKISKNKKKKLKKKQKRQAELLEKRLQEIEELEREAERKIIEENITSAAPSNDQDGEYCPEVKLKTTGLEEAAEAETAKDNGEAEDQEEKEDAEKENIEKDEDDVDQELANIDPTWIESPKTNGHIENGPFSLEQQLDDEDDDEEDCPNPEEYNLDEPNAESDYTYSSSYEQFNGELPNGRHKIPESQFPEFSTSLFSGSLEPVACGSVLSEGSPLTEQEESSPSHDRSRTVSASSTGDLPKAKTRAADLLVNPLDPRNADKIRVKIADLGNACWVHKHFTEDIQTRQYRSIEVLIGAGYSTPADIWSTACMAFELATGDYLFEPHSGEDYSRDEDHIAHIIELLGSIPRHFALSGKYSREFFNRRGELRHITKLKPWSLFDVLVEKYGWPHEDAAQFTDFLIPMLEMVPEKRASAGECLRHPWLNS", "test": "In vitro kinase assay, SRPK2", "assay_type": "biochemical"}, "[10]": {"system": "VEGF165 mRNA in the retina", "test": "VEGF165 mRNA expression in retinae after topical treatment", "assay_type": "in vivo", "details": "mouse, day 14"}, "[11]": {"system": "SRPK1 expression in ARPE-19 cells", "test": "SRPK1 expression in ARPE-19 cells (western blot)", "assay_type": "cell-based, human", "details": "10 μM, up to six days"}, "[12]": {"test": "Pharmacokinetics in the eye after intravitreal injection (mass spectrometry)", "assay_type": "in vivo, mouse", "details": "20 ng intravitreal"}}, "note": "“Also recorded” adds a separate entry of the source."}
{"compound": "CN(C)CCN1CCN(c2ccc(C(F)(F)F)cc2NC(=O)c2ccc(-c3ccncc3)o2)CC1", "note": "[SPHINX7]", "values": [{"measurement": "CNV formation, eye drop", "setting": "laser-induced CNV [1]; mouse, topical", "result": "significantly inhibited CNV formation"}, {"measurement": "IC50", "setting": "laser-induced CNV [1]; mouse, topical, FIG. 11, read-out: IC50 for inhibition of CNV as an eye drop", "result": 0.225, "unit": "µg/mL"}, {"measurement": "amount of VEGF165 at RNA level", "setting": "[2]; 100 nM, FIG. 9A", "result": "reduce the amount of VEGF165"}, {"measurement": "area of neovascular lesions, mouse laser-induced CNV model", "setting": "laser-induced CNV [3]", "result": "achieving significance"}, {"measurement": "SRSF1 phosphorylation induced by EGF", "setting": "[4]", "result": "inhibit SRSF1 phosphorylation"}, {"measurement": "VEGF165b at protein level", "setting": "[5]", "result": "increase VEGF165b"}]}
{"compound": "O=C(Nc1cc(C(F)(F)F)ccc1N1CCCCC1)c1ccncc1", "note": "[SRPIN340, N-[2-(1-piperidinyl)-5-(trifluoromethyl)phenyl]isonicotinamide]", "values": [{"measurement": "half-life", "setting": "in vivo", "result": 0.583, "unit": "h"}, {"measurement": "CNV area, 0.01% solution", "setting": "laser-induced CNV [1]; 0.01% solution in gel drug delivery vehicle, topical", "result": "significant inhibition of CNV area"}, {"measurement": "EC50", "setting": "laser-induced CNV [1]; Mus musculus, topical, read-out: EC50 on CNV, topical", "result": 3.19, "unit": "µg/mL"}, {"measurement": "CNV formation, eye drop", "setting": "laser-induced CNV [1]; mouse, topical", "result": "significantly inhibited CNV formation; also recorded: significantly suppressed CNV"}, {"measurement": "EC50 on CNV lesion area, topical drops", "setting": "laser-induced CNV [1]; mouse, twice daily eye drops, total dose", "result": 640, "unit": "ng"}, {"measurement": "expression of VEGF165 mRNA relative to GAPDH", "setting": "[2]; 5 μM, 24 hours, primary RPE cells", "result": "reduced the expression VEGF65 at RNA level"}, {"measurement": "VEGF expression relative to total protein", "setting": "VEGF protein expression", "result": "significantly reduced total VEGF expression"}, {"measurement": "CNV area vs saline injected controls", "setting": "laser-induced CNV [6]", "result": "significantly reduced the CNV area"}, {"measurement": "expression of SRSF1 relative to a tubulin control", "setting": "[7]", "result": "reduced expression of SRSF1"}, {"measurement": "detection in the eye", "setting": "[8]; 48 hours after a single topical administration", "result": "still detectable"}, {"measurement": "systemic detection", "setting": "[8]; after a single topical administration", "result": "not detected systemically"}, {"measurement": "fraction of total applied dose detected in the eye", "setting": "[8]; single topical 5 μg, after 1 hour, whole eye", "result": 3.5, "unit": "%"}, {"measurement": "fraction of applied dose detected in the posterior chamber", "setting": "[8]; single topical 5 μg, after 12 hours", "result": 0.15, "unit": "%"}, {"measurement": "ratio of pro to anti-VEGF isoforms in retinal protein", "setting": "[9]; rat, 4 days after initial treatment", "result": "No difference in the ratio of pro to anti-VEGF isoforms"}, {"measurement": "VEGF expression in retinal protein", "setting": "[9]; rat, 4 days after initial treatment, western blot", "result": "decrease in the expression of VEGF; also recorded: reduced CNV area and total VEGF protein expression"}, {"measurement": "expression of VEGFxxxb isoforms in rat retinae", "setting": "[9]; vs saline controls", "result": "no change in the expression of VEGFxxxb isoforms"}, {"measurement": "area of neovascular lesions, mouse laser-induced CNV model", "setting": "laser-induced CNV [3]", "result": "achieving significance"}, {"measurement": "EC50 on CNV area", "setting": "laser-induced CNV [3]; mouse, intravitreal, total injected dose", "result": 1.28, "unit": "ng"}, {"measurement": "neovascular area vs control injected eyes", "setting": "laser-induced CNV [3]; two intravitreal injections of 10 ng, mouse", "result": "significantly reduced neovascular area"}, {"measurement": "IC50", "setting": "SRPK1", "result": 0.96, "unit": "µM"}, {"measurement": "IC50", "setting": "SRPK2", "result": 7.4, "unit": "µM"}, {"measurement": "VEGF165 mRNA expression in the retinae", "setting": "[10]", "result": "reduced; also recorded: near significant reduction in VEGF165"}, {"measurement": "SRPK1 expression", "setting": "[11]", "result": "failed to affect SRPK1 expression"}, {"measurement": "concentration in the eye", "setting": "[12]; over a 2 day period", "result": "> 10", "unit": "ng/mL"}, {"measurement": "half-life", "setting": "[12]; mouse, eye tissue, 1-48 hours curve fit, read-out: sustained half-life in the eye (converted)", "result": 22, "unit": "h"}]}
